# Assays:
# [1] = Plasma γ-glutamylcysteine levels after intravenous administration in rats; type: in vivo
# Protocol: (§1) FIG. 2: IV γ-glutamylcysteine Supplementation in Rats. Two rats were administered γ-glutamylcysteine intravenously. […] Plasma was collected at 0, 15, 30, 60, 90, and 120 minutes post-administration and assayed for γ-glutamylcysteine levels.
# (§2) Two rats were administered γ-glutamylcysteine intravenously. […] Plasma was collected at 0, 15, 30, 60, 90, and 120 minutes post-administration and assayed for γ-glutamylcysteine levels.
# [2] = test system: neuronal cells; assay: F2-IsoPs level (oxidative stress) in neuronal cells exposed to H2O2; type: cell-based; settings: neuronal cells pretreated with GGC 500 μM four hours prior to exposure to H2O2
# Source text: To quantify the oxidative stress response, as well as modification of this response by γ-glutamylcysteine supplementation, the inventors will measure isoprostane and isofuran levels. Isoprostanes are prostaglandin like compounds that are produced without cyclooxygenase by free radical induced peroxidation of arachidonic acid. Prostaglandin F2α like compounds, termed F2-isoprostanes (F2IsoPs) have been shown both in vitro and in vivo to be an accurate measure of oxidative stress.
# [3] = test system: Neurons and Astrocytes; assay: Cell death after H2O2 oxidative stress in vitro (MTT, LDH, GSH assays); type: cell-based; settings: γ-glutamylcysteine 500 μM; 10 μM H2O2
# Source text: FIGS. 1A-F: Effects of γ-glutamylcysteine on Neurons and Astrocytes. Protection of cells as measured by MTT (3-(4,5-Dimethylthiazol-2-yl)-2,5-diphenyltetrazolium bromide) assay, GSH (glutathione) assay, and LDH (lactate dehydrogenase) assay.
# [4] = test system: glutathione; assay: Tissue glutathione levels after intravenous γ-glutamylcysteine supplementation in rats; type: in vivo; settings: for Tissue Glutathione Concentration: rats 400 mg/kg IV, mean (95% CI)
# Protocol: Ten rats were also administered 400 mg/kg of γ-glutamylcysteine intravenously. Major organ tissues were harvested from these rats at 0, 30, 60, 90, 120, and 240 minutes and assayed for glutathione concentration. […] [table]
# [5] = rat, in vivo
# Protocol: as §1, §2
compound,measurement,setting,value
N[C@@H](CCC(=O)N[C@@H](CS)C(=O)O)C(=O)O [γ-glutamylcysteine],plasma γ-glutamylcysteine levels,[1]; rats,significant elevation
same,time of peak plasma γ-glutamylcysteine concentration post-injection,"[1]; two rats, plasma at 0-120 min",30 min
same,level of F2-IsoPs (oxidative stress),[2],reduced
same,cell death after exposure to H2O2,[3],significantly reduce cell death
same,Tissue Glutathione Concentration,"[4]; Brain, 0 min, n=5",57.3 (3.3-111.3) μM
same,Tissue Glutathione Concentration,"[4]; Brain, 60 min, n=4",302.3 (190.0-414.5) μM
same,Tissue Glutathione Concentration,"[4]; Brain, 90 min, n=2",146.9 (−1200.5-1494.3) μM
same,Tissue Glutathione Concentration,"[4]; Brain, 120 min, n=2",170.7 (152.0-189.5) μM
same,Tissue Glutathione Concentration,"[4]; Brain, 240 min, n=2",110.7 (54.1-167.3) μM
same,Tissue Glutathione Concentration,"[4]; GI, 0 min, n=5",12.9 (7.2-18.5) μM
same,Tissue Glutathione Concentration,"[4]; GI, 60 min, n=4",189.8 (−5.5-385.0) μM
same,Tissue Glutathione Concentration,"[4]; GI, 90 min, n=2",166.8 (−1699.0-2032.5) μM
same,Tissue Glutathione Concentration,"[4]; GI, 120 min, n=2",14.0 (−1.6-29.6) μM
same,Tissue Glutathione Concentration,"[4]; GI, 240 min, n=2",18.5 (−100.3-137.3) μM
same,Tissue Glutathione Concentration,"[4]; Heart, 0 min, n=5",210.9 (34.4-387.4) μM
same,Tissue Glutathione Concentration,"[4]; Heart, 60 min, n=4",353.4 (220.9-486.0) μM
same,Tissue Glutathione Concentration,"[4]; Heart, 90 min, n=2",658.9 (504.5-813.2) μM
same,Tissue Glutathione Concentration,"[4]; Heart, 120 min, n=2",165.9 (149.4-182.4) μM
same,Tissue Glutathione Concentration,"[4]; Heart, 240 min, n=2",278.1 (170.7-385.4) μM
same,Tissue Glutathione Concentration,"[4]; Kidney, 0 min, n=5",14.9 (4.5-25.2) μM
same,Tissue Glutathione Concentration,"[4]; Kidney, 60 min, n=4",13.5 (−9.1-36.2) μM
same,Tissue Glutathione Concentration,"[4]; Kidney, 90 min, n=2",39.1 (−195.0-273.2) μM
same,Tissue Glutathione Concentration,"[4]; Kidney, 120 min, n=2",13.4 (−16.9-43.6) μM
same,Tissue Glutathione Concentration,"[4]; Kidney, 240 min, n=2",10.2 (−8.9-29.3) μM
same,Tissue Glutathione Concentration,"[4]; Liver, 0 min, n=5",2162.4 (1490.3-2834.5) μM
same,Tissue Glutathione Concentration,"[4]; Liver, 60 min, n=4",5066.4 (−85.9-10218.8) μM
same,Tissue Glutathione Concentration,"[4]; Liver, 90 min, n=2",10832.6 (9616.0-12049.1) μM
same,Tissue Glutathione Concentration,"[4]; Liver, 120 min, n=2",2990.0 (2239.8-3740.1) μM
same,Tissue Glutathione Concentration,"[4]; Liver, 240 min, n=2",4213.7 (−6431.5-14858.8) μM
same,Tissue Glutathione Concentration,"[4]; Lung, 0 min, n=5",142.2 (50.8-233.7) μM
same,Tissue Glutathione Concentration,"[4]; Lung, 60 min, n=4",293.5 (248.6-338.4) μM
same,Tissue Glutathione Concentration,"[4]; Lung, 90 min, n=2",412.2 (−571.1-1395.4) μM
same,Tissue Glutathione Concentration,"[4]; Lung, 120 min, n=2",166.4 (−58.3-391.0) μM
same,Tissue Glutathione Concentration,"[4]; Lung, 240 min, n=2",93.2 (−261.7-448.1) μM
same,Tissue Glutathione Concentration,"[4]; Muscle, 0 min, n=5",228.5 (125-0-331.9) μM
same,Tissue Glutathione Concentration,"[4]; Muscle, 60 min, n=4",307.6 (−1.1-616.3) μM
same,Tissue Glutathione Concentration,"[4]; Muscle, 90 min, n=2",654.5 (44.8-1264.2) μM
same,Tissue Glutathione Concentration,"[4]; Muscle, 120 min, n=2",170.5 (−137.5-478.6) μM
same,Tissue Glutathione Concentration,"[4]; Muscle, 240 min, n=2",21.9 (−16.3-60.1) μM
same,"mean glutathione levels in brain, heart, lung, liver, kidney, gastrointestinal and muscle tissues","[4]; rats, 400 mg/kg intravenous",increased
same,tissue glutathione levels,"[4]; rats, intravenous",significant elevation
same,tolerability of intravenous supplementation,[5],well-tolerated
same,clinically visible signs of toxicity,[5]; iv,no clinically visible signs of toxicity
